Key:
[1] = tested on: 3T3-L1 preadipocyte cells; assay: Differentiation-inducing actions on adipose cells (oil red-O staining, absorbance at 490 nm); type: cell-based; details: 3T3-L1, oil red-O extract absorbance at 490 nm, ratio to control group (1.0)
Procedure: The cloned cell line 3T3-L1 of the preadipocyte cells at the 9-20th generation were used. The cell suspension at a concentration of 2×10^4 cells/ml was added 500 μl/well in a 24 well microplate. Then, the microplates were cultured at 37° C. in the atmosphere of 5% CO2 for 4 days with D-MEM containing 5% inactivated fetal calf serum (hereinafter abbreviated as “FCS D-MEM”). Next, the following procedures were conducted.
(1) To test compound of this invention, 500 μl/well of the following solutions was added to each well:
1) test compound-containing medium (T-MEM) in which the test compound in a stock solution (30 mM in DMSO) was diluted with FCS D-MEM containing 0.1 μM dexamethazone and 100 ng/ml insulin (hereinafter abbreviated as DEX-Ins-FCS D-MEM);
2) FCS-D-MEM; 3) DEX-Ins-FCS D-MEM; 4) 0.1% DMSO-containing DEX-Ins-FCS D-MEM for me control wells.
(2) After above additions were done, the culture plates were incubated at 37° C. in 5% CO2 for 3 days. Then, the same operations as in the procedure (1) were repeated for exchange of the culture medium. The culture plates were incubated at 37° C. in 5% CO2 for further 3 days.
(3) After incubation, the culture medium was removed from the culture plates. Then, the FCS D-MEM was added to the FCS D-MEM-wells, and next the medium prepared for containing 100 ng/ml of insulin with the FCS D-MEM (hereinafter abbreviated as “Ins-FCS D-MEM”) was added at 500 μl/well to the T-MEM wells and DEX-Ins-FCS D-MEM wells. All culture plates were incubated for 4 days.
(4) After incubation, the culture medium was removed. For cell fixation, 500 μl/well of 10% formalin in neutral buffer was added, and left at the room temperature for approximately 20 minutes or longer. Then the formalin solution was removed, and 60% 2-propanol solution was added at 500 μl/well, then quickly removed, and the oil red-O staining solution was added at 250 μl/well. The culture plates were sealed with plate seals, and left at room temperature for 30 minutes or longer. After incubation, the staining solution was removed, and the 60% 2-propanol solution was added at 500 μl/well, and quickly removed. The cells were rinsed with water a few times, and then water drops were flipped away. A cell-lysis buffer was added at 500 μl/well, and the culture plates were sealed with plate seals, and left at 37° C. for 1 hour to extract the pigments. Next, 300 μl/well of the extract solution was transferred at a 96 well micro-plates, and then the absorbance of each extract was measured at wavelength of 490 nm.
The absorbance ratios of the respective test compounds-groups to the control group, the mean absorbance of which was designated as 1.0, are shown in Table 8. Based on the judgement that the absorbance higher than that of the control group indicates a greater differentiation-inducing activity of the test compound, the compounds of the present invention were determined to have the activity to induce differentiation of preadipocytes to adipocytes, resulting in elevating insulin sensitivity of organs. Thereby, this activity would confer the efficacy in the therapy of diabetes.

[2] = tested on: fructose-induced hyperlipidemic rats; assay: Hypotriglyceridemic activity in fructose-induced hyperlipidemic rats; type: in vivo, Sprague Dawley rats; details: Rattus norvegicus, po, 168 h; fructose-loaded rats, 30 mg/kg p.o. once daily for 7 days; read-out: Reduction in Serum Triglyceride (%)
Procedure: The compounds were tested for a hypotriglyceridemic activity in fructose-induced hyperlipidemic rats in accordance with the method described in Nippon Yakurigaku Zasshi, 92 (3), 175-180 (1988). Sprague Dawley rats were grouped by the ranking method of body weight. Then, instead of drinking water, rats were given 75% fructose aqueous ad libitum for one week, thereby, resulting in the state of hypertriglyceridemia. The compounds of the present invention, suspended in 3% Arabic gum aqueous solution, and a dose of 30 mg/kg was orally administrated once daily for 7 days during the fructose-loading period. The control group of rats were given 3% Arabic gum aqueous solution only. Two hours later of the final administration, the rats were bled from the abdominal aorta to measure serum triglycerides and total cholesterol. The reduction rate (%) of each measurement compared to the control groups was calculated according to the equation indicated in EXAMPLE 4.

Row | Structure (SMILES) | Absorbance Ratio [1] | inhibition in vivo at 30 mg/kg [2]
1 | CC(=Cc1ccc(/C=C2/SC(=NC#N)NC2=O)cc1)c1ccccc1 [Compound 4, 2-(N-Cyanoimino)-5-[(E)-4-(β-methylstyryl)benzylidene]thiazolidin-4-one] | 2.62 | 42%
2 | N#CN=C1NC(=O)C(=Cc2ccc(OCCCc3ccccc3)cc2)S1 [Compound 5, 2-(N-Cyanoimino)-5-[4-(3-phenylpropoxy)benzylidene]thiazolidin-4-one] | 1.87 | –
3 | N#CN=C1NC(=O)C(=Cc2ccc(Oc3ccc(Cl)cc3)cc2)S1 [Compound 6, 2-(N-Cyanoimino)-5-[4-(4-chlorophenoxy)benzylidene]thiazolidine-4-one] | – | 84%
4 | N#CN=C1NC(=O)C(=Cc2ccc(Sc3ccccc3)cc2)S1 [Compound 7, 2-(N-Cyanoimino)-5-(4-phenylthiobenzylidene)thiazolidin-4-one] | 1.93 | 60%
5 | N#CN=C1NC(=O)/C(=C\c2ccc(C=Cc3ccccc3F)cc2)S1 [Compound 8, 2-(N-Cyanoimino)-5-[(E)-4-(2-fluorostyryl)benzylidene]thiazolidin-4-one] | 1.95 | 47%
6 | Cc1ccc(C)c(Oc2ccc(C=C3SC(=NC#N)NC3=O)cc2)c1 [Compound 9, 2-(N-Cyanoimino)-5-[4-(2,5-dimethylphenoxy)benzylidene]thiazolidin-4-one] | – | 49%
7 | CC(COc1ccc(C=C2SC(=NC#N)NC2=O)cc1)c1ccccc1 (stereo not shown) [Compound 11, 2-(N-Cyanoimino)-5-[4-(2-phenylpropoxy)benzylidene]thiazolidin-4-one] | – | 62%
8 | N#CN=C1NC(=O)C(=Cc2cccc(OCCc3ccccc3)c2)S1 [Compound 12, 2-(N-Cyanoimino)-5-(3-phenethyloxybenzylidene)thiazolidin-4-one] | 1.74 | 59%
9 | N#CN=C1NC(=O)C(=Cc2ccc(-c3cc4cc(Cl)ccc4o3)cc2)S1 [Compound 14, 2-(N-Cyanoimino)-5-[4-(5-chlorobenzofuran-2-yl)benzylidene]thiazolidin-4-one] | – | 36%
10 | N#CN=C1NC(=O)C(=Cc2cccc(Oc3ccccc3)c2)S1 [Compound 16, 2-(N-Cyanoimino)-5-(3-phenoxybenzylidene)thiazolidin-4-one] | 1.18 | 54%
11 | N#CN=C1NC(=O)C(=Cc2ccc(OCc3ccc4c(c3)OCO4)cc2)S1 [Compound 17, 2-(N-Cyanoimino)-5-[4-(1,3-benzodioxole-5-ylmethoxy)benzylidene]thiazolidin-4-one] | – | 37%
12 | N#CN=C1NC(=O)C(=Cc2ccc(OCc3ccc(Cl)cc3)cc2)S1 [Compound 19, 2-(N-Cyanoimino)-5-[4-(4-chlorobenzyloxy)benzylidene]thiazolidin-4-one] | 1.51 | 38%
13 | CCC(Oc1ccc(C)cc1)c1ccccc1 (stereo not shown) [Compound 32] | – | 47%

From patent publication US6667328B2, “Therapeutic agents for diabetes” (Fujimoto Brothers Co., Ltd., priority 2000, dated 2003)
